Measured values reported in paper PMC8412337, “Alpha-single chains of collagen type VI inhibit the fibrogenic effects of triple helical collagen VI in hepatic stellate cells” (PLoS ONE, 2021).

Legend:
primary rat HSC [1] = assay: Cell Death Detection ELISA (oligonucleosomal DNA fragments); assay type: cell-based; settings: OD of sample divided by OD of 10% FBS group, three independent experiments
Experimental: 10^5 cells were seeded in 6-well plates and treated with starving medium or medium plus CI, CVI or 10% FBS. After 24 or 48 h floating and adherent cells were pooled, and lysed with 500 μl of 1% SDS, 10 mM Tris, pH 7.4 (lysis buffer), for 30 min at 4°C. Lysed cells were transferred to 1.5 ml Eppendorf tubes and centrifuged at 13,000 rpm for 20 min, to separate low molecular weight DNA (oligonucleosome-sized fragments derived from apoptotic cells) from high molecular weight DNA (from viable cells). 400 μl of the supernatant containing oligonucleosomes were transferred to another Eppendorf tube and diluted 1:5 with lysis buffer. 100 μl aliquots were used for the Cell Death Detection ELISA, which was performed according to the manufacturer’s instructions (Boehringer Mannheim, Germany). In brief, antibodies against histones were coated onto 96-wells, 100 μl lysate-samples containing oligonucleotides and histones were added and incubated for one hour. After washing, wells were incubated with anti-double strand DNA antibody coupled to peroxidase for one hour. After reaction with peroxidase substrate, absorbance was measured at 405 nm using an ELISA reader. Background values (lysis-buffer alone) were subtracted, and results are shown as enrichment factor [enrichment factor: OD (optical density) of the sample (apoptotic cells) divided by the OD of the corresponding control (viable cells, 10% FBS-group). A defined positive control was prepared using a hypertonic buffer, containing 10 mM Tris, 400 mM NaCl, 5 mM CaCl2 and 10 mM MgCl2, instead of starving medium.

primary rat HSC [2] = assay: FACS analysis of apoptosis (propidium iodide DNA content); assay type: cell-based
Experimental: Activated HSC (third passage) were serum starved for 24 h in standard medium without FBS (starving medium), followed by dissociation with 500 μl 0.05% trypsin-EDTA (Biochrom, Berlin, Germany) and neutralization with 30 ml starving medium containing 1 g/l soybean trypsin inhibitor and 1 g/l ovalbumin. Alternatively, cells were scraped carefully with a cell-scraper (Costar, Cambridge, MA, USA) to exclude any potential effect of trypsin. After centrifugation at 800 x g for 10 min, cells were washed twice with 20 ml PBS (w/o Ca^2+, Mg^2+; Biochrom, Berlin, Germany), resuspended in starving medium and plated at a density of 1.5-2x10^6 in 1.7 ml starving medium in 6-well plates (NUNC, Wiesbaden, Germany). Cells were then treated with starving medium, soluble CI or CVI (both at a final concentration of 30 mg/l), or 10% FBS. For quantification of spreading, cells that had attached were counted 12 hours after plating and spreading efficiency was determined as percentage of plated cells in each group. De-novo DNA synthesis and apoptosis were assessed by morphological criteria, Cell death detection ELISA and FACS analysis as described below. […] After blocking the cells 1h with DMEM+1% FBS, the cells were incubated with primary antibodies against a-actin (Sigma-Aldrich, Taufkirchen, Germany, #A2547; dilution 1:200) and GFAP (Sigma-Aldrich, #G9269; dilution 1:20) followed by a washing step with PBS and the incubation with fluorescence-labeled secondary antibodies (Alexa Fluor 546 & Alexa Fluor 488, Molecular Probes, Eugene, USA, #A11030 & #A11034; dilution 1:100). […] Cells were analyzed by fluorescence microscopy (Zeiss, Jena, Germany; Kodak Ektachrome P1600 and a quantitative staining analysis was performed using Image J software (version 1.50i; National Institutes of Health, Bethesda, […], USA).
10^5 of freshly set cells were treated with starving medium, CI, CVI or 10% FBS for 24 or 48 hours as described before. […] Fixed cells were stained with propidium iodide (50 mg/l) in a final volume of 1 ml before being subjected to fluorescence activated cell sorting (FACS) analysis.

CFSC = assay: Fibrosis-associated gene expression, quantitative real-time PCR; assay type: cell-based, rat
Experimental: 30 mg/l CVI, 133 mg/l of the monomeric alpha chains of CVI and/or TGF-β (2 ng/ml) were added after 24 h. […] Reverse transcribed complementary DNA templates were amplified by quantitative real-time polymerase chain reaction (PCR; Roche Diagnostics, Mannheim, Germany) using fluorogenic probes labeled with 6-carboxy-fluorescein and 6-carboxy-tetramethylrhodamin (Sigma- Genosys, Steinheim, Germany) and primer pairs (Invitrogen, Karlsruhe, Germany) specific for fibrosis-associated genes (for sequences see S2 Table). Gene expressions were normalized to glyceraldehyde phosphate dehydrogenase (GAPDH).

primary rat HSC [3] = assay: DNA laddering (agarose gel electrophoresis); assay type: cell-based; settings: after 24 h; 30 μg/ml CVI; serum-starved primary rat HSC
Experimental: Cells were treated 24 h with 0% FBS, CI, CVI or 10% FBS. Equal cell numbers (1.5x10^6) were used to detect oligonucleosomes using the Apoptotic DNA Ladder Kit (Boehringer Mannheim, Germany) according to the manufacturer’s instructions. The isolated DNA from each group was electrophoresed on a 1.5% Agarose-Gel at 75 V for 1.5 hours, stained with ethidium bromide and visualized via an UV light source (302 nm).

With “CVI: Human collagen VI isolated from placentas by pepsin digestion; triple helical, soluble” the “enrichment factor of oligonucleosomal fragments” value (primary rat HSC [1]; after 24 hours) was 2, the “enrichment factor of oligonucleosomal fragments” value (primary rat HSC [1]; after 48 hours) was 6 and the “fold less apoptosis compared to the CI-treated group” value (primary rat HSC [2]; FACS, CVI-treated versus CI-treated group, p<0.05) was “approximately 3 fold”. For the same substance, the “percentage of apoptotic cells (FACS)” value (primary rat HSC [2]; serum-starved primary rat HSC, text: within 24 hours, Fig 1C legend: 48 h, propidium iodide, three independent experiments) was 25%, the “kinetics of CI expression compared with TGF-β” value (CFSC; CFSC, medium containing 0.2% FBS, S3 Fig) was “slightly decreased and delayed” and the “αSMA, CI and TGF-β expression” value (CFSC; serum-starved CFSC, 30 mg/l CVI, 24 h, qPCR normalized to GAPDH) was “potently induced”. For the same substance, the “reduction of the expression of MMP-3” value (CFSC; serum-starved CFSC, 24 h, TGF-β 2 ng/ml, CVI 30 mg/l, qPCR normalized to GAPDH) was “only slightly reduced”, the “expression of TIMP-1” value (CFSC; serum-starved CFSC, 24 h, qPCR normalized to GAPDH) was “stimulated the expression of TIMP-1” and the “apoptosis-associated DNA laddering” value (primary rat HSC [3]) was “only faint”.
